Among the data in ChEMBL document CHEMBL1155683, “Dolastatin 3 and two novel cyclic peptides from a palauan collection of Lyngbya majuscula” (J Nat Prod, 2000) are Activity and IC50 values, retold here.

Experiment [1] concerns the target Human immunodeficiency virus type 1 integrase (Human immunodeficiency virus 1) (UniProt Q7ZJM1). Description: Inhibition of HIV1 integrase long terminal repeat cleavage activity at […].
Experiment [2] has the same target. Description: Inhibition of HIV1 integrase strand transfer activity at […].
In experiment [3] the target is T1, Human immunodeficiency virus type 1 integrase (Human immunodeficiency virus 1, UniProt Q7ZJM1). Description: Inhibition of HIV1 integrase long terminal repeat cleavage activity.
T1 sequence (Q7ZJM1 whole entry): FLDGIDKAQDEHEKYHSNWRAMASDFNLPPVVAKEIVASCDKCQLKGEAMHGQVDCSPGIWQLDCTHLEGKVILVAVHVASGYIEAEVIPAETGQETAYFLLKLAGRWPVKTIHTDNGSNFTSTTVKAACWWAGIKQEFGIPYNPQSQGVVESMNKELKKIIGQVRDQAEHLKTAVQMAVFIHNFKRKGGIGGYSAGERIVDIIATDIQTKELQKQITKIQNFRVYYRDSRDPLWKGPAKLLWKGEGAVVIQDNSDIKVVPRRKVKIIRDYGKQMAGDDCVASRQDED
Experiment [4] has as its target T1, Human immunodeficiency virus type 1 integrase. Description: Inhibition of HIV1 integrase strand transfer activity.

Activity calls are given as the source filed them. No cut-off for these calls is given here.

Sequence of Human immunodeficiency virus type 1 integrase (Human immunodeficiency virus 1) (Q7ZJM1 as listed by the source): as the sequence (Q7ZJM1 whole entry) above

For `CCC(C)[C@@H]1NC(=O)c2csc(n2)CNC(=O)c2csc(n2)[C@H](CCC(N)=O)NC(=O)[C@H](CC(C)C)NC(=O)[C@@H]2CCCN2C1=O` (some centres undefined), the result in experiment [1] and in experiment [2] was inactive.

As usually defined, the IC50 is the concentration that inhibits the measured activity by half. Low readings indicate greater potency in that assay, high ones weaker potency in that assay. Take `CC(C)C[C@@H]1NC(=O)[C@@H]2CCCN2C(=O)[C@H](C(C)C)NC(=O)c2csc(n2)CNC(=O)c2csc(n2)[C@H](CCC(N)=O)NC1=O` [DOLASTATIN 3]: the IC50 in experiment [3] was determined as 5 mM; in experiment [4] it was 4.1 mM.
